Reference: patent EP0397424A2, “Multiple analysis system” (Biotrack, Inc., priority 1989, dated 1990)

Test system: red cells
Assay: Red cell lysis by detergent-saturated polyethylene reagent pads (completeness of lysis, red cell fragments)
Assay type: cell-based
Set-up: key: + = complete lysis or absence of red cell fragments; - = incomplete lysis or presence of red cell fragments
Conditions: blood passed through reagent pad saturated with detergent solution
Protocol: Centered polyethylene reagent pads were saturated with a detergent solution, and the ability of the pad to provide completely lysed blood not containing any red cell fragments was analyzed. Since this sample is also used in the blood donor cartridge as described above to provide sample that is used in an agglutination reaction, inhibition of the agglutination reaction was also measured. Inhibition of agglutination was done subjectively, with 0 indicating little or no inhibition of agglutination and 5 representing the maximum amount of inhibition (essentially no agglutination under normal agglutinating conditions).
Other combinations of detergents can be determined in the same manner by measuring both red cell lysis and inhibition of agglutination and selecting a combination of detergents that provides the desired complete lysis with a minimum of inhibition.

## mellitin
+ = absence of fragments
  Red Cell Fragments: -
+ = complete lysis
  Incomplete RBC lysis: +
